This is an account of results in patent publication US20130130306A1, “ZN (II) BASED COLORIMETRIC SENSOR AND PROCESS FOR THE PREPARATION THEREOF” (COUNCIL OF SCIENTIFIC & INDUSTRIAL RESEARCH, priority 2010, published 2013).

Where “and” joins values, the source holds several entries; their conditions need not be identical. Equal entries are not always repeated.

This test is described as follows: UV-vis spectral response and spectrophotometric titration with ATP. The class given is binding. The settings on record: for binding constant for the formation of the complex L.Zn-ATP: spectrophotometric titration, pH 7.2, 10 mM HEPES, 25° C. Here is the method:
In order to examine the binding behaviour of the Zn-complex (L.Zn) (Scheme 1, Formula 1A) to various important anions (like ATP, CTP, ADP, AMP, PPi, H2PO4^−, SO4^2−, CH3CO2^−, I^−, Br^−, Cl^− and F^−) the following experiment was conducted. A solution (˜21 mM) for of sodium salts of ATP, CTP, ADP, AMP, PPi, H2PO4^−, SO4^−, CH3CO2^−, I^−, Br^−, Cl^−, and F^− were prepared using respective salt in 10 mM HEPES buffer solutions (pH 7.2) and was stored for use. Further, a solution (44.35 μM) of the compound L.Zn (Scheme 1, Formula 1A) was prepared using doubly-distilled and deionized water and stored. These stored solutions were used on the day of preparation of the solution for experiment.
A test solution was used after 1 mL of a probe storage solution (the previously prepared and stored solution of 44.35 μM for the compound (L.Zn) (Scheme 1, Formula 1A of the present invention) was put in a 10 mL test tube, such that the final concentration of the probe storage solution was 8.87 μM. To this 4 mL of each of the previous prepared and stored solutions of ATP and other anions (CTP, ADP, AMP, PPi, H2PO4^−, SO4^2−, CH3CO2^−, I^−, Br^−, Cl^− and F^−) was added to the test tube such that the aliquot of each of the solutions was (17 mM). Then the resultant solution was used for UV-vis spectral measurement after appropriate base line correction using a double beam spectrophotometer (Shimadzu UV-3101 PC) and the results thereof are shown in FIG. 1.
Thus a red shift of 40 nm was observed on addition of the solution of ATP (˜1920 equiv.) to the solution of L.Zn (Scheme 1, Formula 1A). […]
A solution of L.Zn (Scheme 1, Formula 1A) (8.87 μM) in aqueous medium was treated with excess amount of ˜500 μM of different phosphate anions like H2PO4^−, PPi, AMP, ADP, ATP and CTP. […] Thus L.Zn (Scheme 1, Formula 1A) can bind ATP selectively among various phosphate anions and the color change associated with the binding of ATP can be detected through naked eye (FIG. 2). […]
A 1.0 mL of stored solution of L.Zn (Scheme 1, Formula 1A) ([L.Zn]=47.3 μM) was put in a test-tube, such that, the final concentration of the L.Zn solution was 9.46 μM. To this varying amount of ATP (0.1-4 mL of the stored ATP solution (21.6 mM) was added. Resulting solution was then diluted by addition of a 10 mM HEPES buffer solution (pH 7.2) maintaining total volume of the resultant aliquot of 5 mL, which was used for spectrophotometric measurements using a double beam spectrophotometer and quartz spectrophotometric cell (3.5 mL capacity). The total spectral change was measured using a double beam spectrophotometer (Shimadzu UV-3101 PC) after appropriate base line correction. Slit width for all experiments during this titration was kept unchanged at 0.2 nm and the results thereof are shown in FIG. 3. […]

Take `CN(C)c1ccc(N=Nc2ccc(S(=O)(=O)N3CCCNCCNCCCNCC3)cc2)cc1.O=[N+]([O-])[O-].O=[N+]([O-])[O-].[Zn+2]` [L.Zn]: the “binding constant for the formation of the complex L.Zn-ATP” value was 978 ± 15 M⁻¹ and 978 ± 4 M⁻¹. In addition, the “color change on addition of ATP (naked eye)” value (L.Zn 8.87 μM in aqueous medium, ~500 μM anion) is “significant color change”. Besides, where the note is “from 463 nm to 503 nm, pH 7.2, ~1920 equiv. ATP”, the “shift of absorption maxima on binding to ATP” value is recorded as 40 nm. Further, the “binding constant for the formation of the complex L.Zn-ATP” value (listed as compound of formula 1A) amounted to 978 ± 4 M⁻¹.
